Experimental data taken from patent EP4711364A1, “FUSED PYRROLE RING OR FUSED PYRIDINE RING COMPOUND” (Pharmaengine, Inc., priority 2023, dated 2024).

How the values were obtained:
HCC1569 = experiment: Cell Proliferation Assay (CellTiter-Glo); format: cell-based; details: Homo sapiens, 168 h, CCNE1-amplified breast cancer cell line HCC1569, incubated for 7 days
Experimental: The sensitivity of cancer cell lines with normal or elevated CCNE1 levels to test compounds was evaluated in a cell proliferation assay. Cell lines were maintained in ATCC-recommended culture media supplemented with 10% FBS and 1% penicillin/streptomycin in a humidified 5% CO2 incubator. All test compounds were stored as 20 mM DMSO stock solutions.
On Day 0, CCNE1-wild type (wt) and CCNE1-amplified (amp) cells were seeded into 384-well plates and incubated for 16 to 24 hours in a humidified 5% CO2 incubator. On Day 1, test compounds were dispensed into wells at specified concentrations (n=2), with DMSO volume normalized to the highest concentration. Plates with compound-treated cells were incubated for 7 days in a humidified 5% CO2 incubator.
On Day 7, plates were removed from the incubator and equilibrated to room temperature. Relative inhibition was assessed by adding CellTiter-Glo reagent. Data were plotted as a percentage of the DMSO control for each compound in each cell line. IC50 values were calculated using a four-parameter nonlinear regression model (GraphPad Prism). Table 1: Cell viability data

[1] = biological target: T1, NanoLuc-PKMYT1 fusion construct (Homo sapiens, UniProt Q99640); experiment: cell-based; format: binding; details: HEK293 cell lines transiently expressing NanoLuc-PKMYT1; NanoBRET tracer; test compounds for 2 hours
T1 construct: expressed in transfected cells; host or cells: HEK293 (transient expression)
T1 sequence (Q99640 1-499): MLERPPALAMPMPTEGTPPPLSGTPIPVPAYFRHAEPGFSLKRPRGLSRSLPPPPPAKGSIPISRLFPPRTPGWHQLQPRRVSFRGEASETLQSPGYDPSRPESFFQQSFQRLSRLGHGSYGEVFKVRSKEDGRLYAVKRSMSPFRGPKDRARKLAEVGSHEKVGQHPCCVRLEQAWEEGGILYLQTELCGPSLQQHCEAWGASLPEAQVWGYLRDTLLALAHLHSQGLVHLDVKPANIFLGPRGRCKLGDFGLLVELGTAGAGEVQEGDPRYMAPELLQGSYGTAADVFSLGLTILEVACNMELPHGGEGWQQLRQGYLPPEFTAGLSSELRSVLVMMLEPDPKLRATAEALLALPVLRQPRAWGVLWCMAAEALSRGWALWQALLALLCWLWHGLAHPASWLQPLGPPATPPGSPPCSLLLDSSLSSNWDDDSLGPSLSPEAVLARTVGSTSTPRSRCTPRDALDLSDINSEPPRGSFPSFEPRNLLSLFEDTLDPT
Experimental: HEK293 cell lines transiently expressing the NanoLuc-PKMYT1 fusion construct were seeded into wells of a 3 84-well plate. Cells were pretreated with NanoBRET tracer, then treated with test compounds for 2 hours. BRET signals were measured on an Envision multimode plate reader at 450 nm and 610 nm. IC50 values were calculated, and IC50 curves were plotted using GraphPad Prism with a four-parameter nonlinear regression model.

SMILES | IC50 (HCC1569) | IC50 [1]
Cc1nc2c3c(c1C)C=CNC(=O)c3c(N)n2-c1c(Cl)cc(F)c2[nH]ncc12 [Compound 136] | > 1000 nM | 21.6 nM
Cc1ccc2[nH]ncc2c1-n1c(N)c2c3c(c(C)c(C)nc31)C=CNC2=O [Compound 126] | 666 nM | 5.5 nM
Cc1nc2c3c(c1C)C=CNC(=O)c3c(N)n2-c1c(C)c(F)cc2[nH]ncc12 [Compound 138] | > 1000 nM | 19.8 nM
Cc1nc2c3c(c1C)C=CNC(=O)c3c(N)n2-c1c(Cl)c(F)cc2[nH]ncc12 [Compound 137] | 566 nM | 22.5 nM
Cc1cc2c(C(N)=O)c(N)n(-c3c(C)ccc(O)c3C)c2nc1C [Rp6306, reference compound] | 18 nM | –
